≈ marks a conversion by molar mass, not a printed value.
Assays:
NIH3T3 [1] = test: Survival effect on NGF-dependent mouse NIH/3T3 cells expressing TrkA assessed as cell viability after 2 days by MTT assay; assay type: functional; conditions: NIH3T3, 48 h, read-out: ED50 (the source's name)
NIH3T3 [2] = test: Survival effect on NGF-dependent mouse NIH/3T3 cells expressing TrkB assessed as cell viability after 2 days by MTT assay; assay type: functional; conditions: NIH3T3, 48 h, read-out: ED50 (the source's name)

C=C1[C@H](OC(C)=O)[C@@H](OC(=O)c2ccccc2)[C@@H](OC(=O)c2ccccc2)C(C)(C)[C@H]2O[C@@H]2[C@@H](C)C(=O)[C@@]2(OC(C)=O)C[C@H](C)[C@H](OC(C)=O)[C@@H]2[C@H]1OC(C)=O [KANSUININ F]
EC50 (NIH3T3 [1]): > 50 µg/mL | EC50 (NIH3T3 [2]): > 50 µg/mL

C=C1[C@H](OC(C)=O)[C@@H](OC(=O)c2ccccc2)[C@@H](OC(=O)c2cccnc2)C(C)(C)[C@H]2O[C@](O)([C@H](C)C2=O)[C@@]2(OC(C)=O)C[C@H](C)[C@H](OC(C)=O)[C@@H]2[C@H]1OC(C)=O [KANSUININ D]
EC50 (NIH3T3 [1]): 0.55 µg/mL (≈ 0.693 µM) | EC50 (NIH3T3 [2]): 0.22 µg/mL (≈ 0.277 µM)

C=C1[C@H](OC(C)=O)[C@@H](OC(=O)c2ccccc2)[C@@H](OC(C)=O)C(C)(C)[C@H]2O[C@](O)([C@H](C)C2=O)[C@@]2(OC(C)=O)C[C@H](C)[C@H](OC(C)=O)[C@@H]2[C@H]1OC(C)=O [KANSUININ A]
EC50 (NIH3T3 [1]): 7.92 µg/mL (≈ 10.8 µM) | EC50 (NIH3T3 [2]): 3.28 µg/mL (≈ 4.49 µM)

C=C1[C@H](OC(C)=O)[C@@H](OC(=O)c2ccccc2)[C@@H](OC(=O)c2cccnc2)C(C)(C)[C@H]2O[C@@H]2[C@@H](C)C(=O)[C@@]2(OC(C)=O)C[C@H](C)[C@H](OC(C)=O)[C@@H]2[C@H]1OC(C)=O [KANSUININ E]
EC50 (NIH3T3 [1]): 0.23 µg/mL (≈ 0.296 µM) | EC50 (NIH3T3 [2]): > 50 µg/mL
